Among the data in patent US10202350B2, “MCT4 inhibitors for treating disease” (Vettore, LLC, priority 2015, dated 2019) are IC50 values, retold here.

One test addresses MCT4 (Homo sapiens (Human), UniProt O15427). Description: MCT4-mediated lactate transport in MDA-MB-231 breast cancer cells. It counts as cell-based. The settings on record: MDA-MB-231 cells, native MCT4; 50 mM L-lactate. As to the method: (§1) 10 μL of a 30 mM DMSO stock of BCECF-AM ester (Life Technologies) is added and the cells are incubated at 37° C. for 5 min. The cells are pelleted (300 g, 5 min), washed once with 1 mL Tyrode's Solution, pH 7.4, re-pelleted (300 g, 5 min), and resuspended in 1 mL Tyrode's Solution, pH 7.4.
(§2) 2.5 μL BCECF-loaded cells, along with either 10 μL DMSO or 100×compound in DMSO, are added to 937.5 μL of Tyrode's Solution in a quartz 1.0 mL cuvette (PerkinElmer, B0631116). […] After establishing baseline BCECF fluorescence (around 10-20 s), 50 μL of 1 M sodium L-lactate (Sigma-Aldrich) is added to the cuvette (final concentration: 50 mM) and rapidly mixed. The time-dependent decrease in BCECF fluorescence (490/440 ratio) may be fit to an exponential decay curve (Prism GraphPad) to determine the rate of lactate transport.
Preparation of BCECF-loaded cells and lactate transport activity may be determined as described for Assay 1.

Another test deals with MCT1 (Homo sapiens (Human), UniProt P53985). The test is described as follows: MCT1-mediated lactate transport in BT20 breast cancer cells. It counts as cell-based. To be noted: native MCT1, 10 mM L-lactate, Table 3. Here is the method: as §1, §2
Assay 4: MCT1-Mediated Lactate Transport in BT20 Breast Cancer Cells.
Preparation of BCECF loaded cells are as described for Assay 1. Lactate transport assay is as described for Assay 1, except 10 mM L-lactate (rather than 50 mM) is added.

Molecules are shown by their SMILES.

MCT4, sequence (O15427 whole entry, looked up): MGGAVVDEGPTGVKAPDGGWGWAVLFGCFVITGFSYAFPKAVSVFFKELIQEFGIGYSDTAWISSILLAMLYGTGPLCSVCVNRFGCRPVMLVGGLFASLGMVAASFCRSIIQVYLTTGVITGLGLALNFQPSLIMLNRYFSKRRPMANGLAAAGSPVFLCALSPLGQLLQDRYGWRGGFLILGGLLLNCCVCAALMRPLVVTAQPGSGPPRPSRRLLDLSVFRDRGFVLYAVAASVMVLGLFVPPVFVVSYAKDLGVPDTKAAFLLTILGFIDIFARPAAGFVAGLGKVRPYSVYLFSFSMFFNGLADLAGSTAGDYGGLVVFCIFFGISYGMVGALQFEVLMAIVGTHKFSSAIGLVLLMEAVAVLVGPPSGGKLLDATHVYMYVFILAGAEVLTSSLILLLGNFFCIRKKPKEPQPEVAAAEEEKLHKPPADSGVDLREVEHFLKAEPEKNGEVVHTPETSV
MCT4, sequence (P35613 whole entry partner, looked up): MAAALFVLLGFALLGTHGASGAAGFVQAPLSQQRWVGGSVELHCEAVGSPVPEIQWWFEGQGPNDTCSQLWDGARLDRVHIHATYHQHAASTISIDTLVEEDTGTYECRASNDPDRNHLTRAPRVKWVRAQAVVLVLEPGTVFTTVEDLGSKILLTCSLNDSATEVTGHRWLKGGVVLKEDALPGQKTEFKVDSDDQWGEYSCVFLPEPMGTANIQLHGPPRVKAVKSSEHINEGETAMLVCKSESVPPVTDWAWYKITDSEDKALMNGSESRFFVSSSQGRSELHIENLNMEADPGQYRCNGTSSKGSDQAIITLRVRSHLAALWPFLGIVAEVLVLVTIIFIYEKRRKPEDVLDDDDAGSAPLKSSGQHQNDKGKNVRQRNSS
MCT1, sequence (P53985 whole entry): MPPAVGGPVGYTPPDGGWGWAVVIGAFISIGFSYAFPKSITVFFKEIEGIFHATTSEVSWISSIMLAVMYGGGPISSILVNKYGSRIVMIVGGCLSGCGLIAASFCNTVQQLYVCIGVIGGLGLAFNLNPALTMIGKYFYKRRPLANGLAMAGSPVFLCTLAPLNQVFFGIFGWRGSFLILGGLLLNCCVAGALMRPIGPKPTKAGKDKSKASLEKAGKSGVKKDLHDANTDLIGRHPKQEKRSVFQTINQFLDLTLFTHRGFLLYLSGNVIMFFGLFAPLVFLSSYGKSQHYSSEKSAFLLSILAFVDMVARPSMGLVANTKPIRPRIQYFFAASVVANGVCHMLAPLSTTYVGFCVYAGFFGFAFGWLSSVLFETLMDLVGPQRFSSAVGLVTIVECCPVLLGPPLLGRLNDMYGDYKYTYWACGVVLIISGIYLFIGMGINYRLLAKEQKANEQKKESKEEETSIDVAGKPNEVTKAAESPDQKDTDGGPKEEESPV
MCT1, sequence (P35613 140-385 partner): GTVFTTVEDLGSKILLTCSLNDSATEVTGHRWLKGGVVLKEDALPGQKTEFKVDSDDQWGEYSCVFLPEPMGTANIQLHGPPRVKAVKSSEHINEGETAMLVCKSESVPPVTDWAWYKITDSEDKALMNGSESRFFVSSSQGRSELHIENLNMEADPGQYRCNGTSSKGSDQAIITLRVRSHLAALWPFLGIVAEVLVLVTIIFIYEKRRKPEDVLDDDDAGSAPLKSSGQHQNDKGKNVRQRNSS

On to `CC(C)(OCc1cc(-c2cccs2)n(Cc2ccccc2Cl)n1)C(=O)O` [Example 25, 2-[[1-[(2-Chlorophenyl)methyl]-5-(2-thienyl)pyrazol-3-yl]methoxy]-2-methyl-propanoic acid], for which the 50% inhibitory concentration (IC50) on MCT4 stood at 33 nM; against MCT1, 77000 nM.

Take `CNc1cccc(-c2cc(COC(C)(C)C(=O)O)nn2Cc2ccccc2Cl)c1` [Example 72, 2-([1-[(2-Chlorophenyl)methyl]-5-[3-(methylamino)phenyl]-1H-pyrazol-3-yl]methoxy)-2-methylpropanoic Acid]: the IC50 was 220 nM against MCT4 and 45000 nM at MCT1.

`CC(C)COc1cccc(-c2cc(COC(C)(C)C(=O)O)nn2Cc2ccccc2F)c1` [Example 26, 2-[[1-[(2-Fluorophenyl)methyl]-5-(3-isobutoxyphenyl)pyrazol-3-yl]methoxy]-2-methyl-propanoic acid]: the figures for the IC50 at MCT4 and against MCT1 were 9.4 nM and 27000 nM, respectively.

As for `COc1cccc(-c2cc(COC3(C(=O)O)CCC3)nn2Cc2ccccc2Cl)c1` [Example 41, 1-[[1-[(2-Chlorophenyl)methyl]-5-(3-methoxyphenyl)pyrazol-3-yl]methoxy]cyclobutanecarboxylic acid], the IC50 against MCT4 came out at 55 nM; against MCT1, 1200 nM.

For `CC(C)Oc1cccc(-c2cc(COC(C)(C)C(=O)O)nn2Cc2ccccc2Br)c1` [Example 29, 2-[[1-[(2-Bromophenyl)methyl]-5-(3-isopropoxyphenyl)pyrazol-3-yl]methoxy]-2-methyl-propanoic acid], the IC50 against MCT4 was found to be 3.7 nM; against MCT1, 16000 nM.

As to `CC(C)(OCc1cc(-c2cccc(O)c2)n(Cc2ccccc2Cl)n1)C(=O)O` [Example 79, 2-[[1-[(2-Chlorophenyl)methyl]-5-(3-hydroxyphenyl)pyrazol-3-yl]methoxy]-2-methyl-propanoic Acid], the IC50 at MCT4 is 59 nM; at MCT1 it was 15000 nM.

As for `CC(C)(OCc1cc(-c2cccc(C#N)c2)n(Cc2ccccc2Cl)n1)C(=O)O` [Example 48, 2-([1-[(o-Chlorophenyl)methyl]-5-(m-cyanophenyl)-1H-pyrazol-3-yl]methoxy)-2-methylpropionic acid], the IC50 stood at 89 nM at MCT4 and 55000 nM at MCT1.

Consider `CC(C)(OCc1cc(-c2cccc(OCC3CC3)c2)n(Cc2ccccc2Cl)n1)C(=O)O` [Example 33, 2-[[1-[(2-Chlorophenyl)methyl]-5-[3-(cyclopropylmethoxy)phenyl]pyrazol-3-yl]methoxy]-2-methyl-propanoic acid], for which the IC50 against MCT4 was 3.2 nM; against MCT1 it was 9100 nM.

As for `COc1cccc(-c2cc(COC(C)(C)C(=O)O)nn2Cc2ccccc2Br)c1` [Example 30, 2-[[1-[(2-Bromophenyl)methyl]-5-(3-methoxyphenyl)-1H-pyrazol-3-yl]methoxy]-2-methylpropanoic acid], the IC50 against MCT4 came to 8.8 nM; at MCT1, 27000 nM.

On to `COCc1cccc(-c2cc(COC(C)(C)C(=O)O)nn2Cc2ccccc2Cl)c1` [Example 52, 2-([1-[(2-chlorophenyl)methyl]-5-[3-(methoxymethyl)phenyl]-1H-pyrazol-3-yl]methoxy)-2-methylpropanoic acid], for which the IC50 against MCT4 is 190 nM; against MCT1, 84000 nM.

With `CC(C)(OCc1cc(Nc2ccccc2)n(Cc2ccccc2Cl)n1)C(=O)O` [Example 75, 2-([1-[(2-chlorophenyl)methyl]-5-(phenylamino)-1H-pyrazol-3-yl]methoxy)-2-methylpropanoic Acid], the results for the IC50 against MCT4 and at MCT1 were 1700 nM and above 100000 nM, respectively.

Consider `COc1cccc(-c2cc(COC(C)(C)C(=O)O)nn2-c2cccc(Cl)c2)c1` [Example 58, 2-[[1-(3-chlorophenyl)-5-(3-methoxyphenyl)-1H-pyrazol-3-yl]methoxy]-2-methylpropanoic acid], for which inhibition at MCT1 was half-maximal at 78000 nM (IC50).

`CC(C)(OCc1cc(-c2cscn2)n(Cc2ccccc2Cl)n1)C(=O)O` [Example 47, 2-([1-[(o-Chlorophenyl)methyl]-5-(1,3-thiazol-4-yl)-1H-pyrazol-3-yl]methoxy)-2-methylpropionic acid]: the IC50 was 410 nM on MCT4 and above 100000 nM on MCT1.

Turning to `CC(C)COc1cccc(-c2cc(COC(C)(C)C(=O)O)nn2Cc2ccccc2)c1` [Example 60, 2-([1-Benzyl-5-[3-(2-methylpropoxy)phenyl]-1H-pyrazol-3-yl]methoxy)-2-methylpropanoic Acid], the figures for the IC50 against MCT4 and on MCT1 were 13 nM and 44000 nM, respectively.

For the molecule `COc1ccccc1Cn1nc(COC(C)(C)C(=O)O)cc1-c1cccc(OCC(C)C)c1` [Example 61, 2-([1-[(2-methoxyphenyl)methyl]-5-[3-(2-methylpropoxy)phenyl]-1H-pyrazol-3-yl]methoxy)-2-methylpropanoic acid], the IC50 against MCT4 turned out to be 3.1 nM; against MCT1, 11000 nM.

With `COC(=O)C(C)(C)OCc1cc(-c2cccc(OC)c2)n(Cc2ccccc2Cl)n1` [Example 82, Methyl 2-[[1-[(2-chlorophenyl)methyl]-5-(3-methoxyphenyl)pyrazol-3-yl]methoxy]-2-methyl-propanoate], the IC50 on MCT4 came out at 460 nM; at MCT1, 16000 nM.

`CC(C)(OCc1cc(-c2cccc(OCC3COC3)c2)n(Cc2ccccc2Cl)n1)C(=O)O` [Example 80, 2-[[1-[(2-Chlorophenyl)methyl]-5-[3-(oxetan-3-ylmethoxy)phenyl]pyrazol-3-yl]methoxy]-2-methyl-propanoic Acid]: 81 nM corresponded to half-maximal inhibition at MCT4 (IC50).

As for `CC(C)(OCc1cc(-c2cccc(CN3CCOCC3)c2)n(Cc2ccccc2Cl)n1)C(=O)O` [Example 40, 2-[[1-[(2-Chlorophenyl)methyl]-5-[3-(morpholinomethyl)phenyl]pyrazol-3-yl]methoxy]-2-methyl-propanoic acid], the results for the 50% inhibitory concentration (IC50) on MCT4 and against MCT1 were 520 nM and above 100000 nM, respectively.

For the molecule `CC(C)(OCc1cc(-c2cccc(NS(C)(=O)=O)c2)n(Cc2ccccc2Cl)n1)C(=O)O` [Example 71, 2-([1-[(2-chlorophenyl)methyl]-5-(3-methanesulfonamidophenyl)-1H-pyrazol-3-yl]methoxy)-2-methylpropanoic Acid], the IC50 on MCT4 stood at 34000 nM; against MCT1, 64000 nM.

As for `CC(C)C(=O)Nc1cccc(-c2cc(COC(C)(C)C(=O)O)nn2Cc2ccccc2Cl)c1` [Example 69, 2-([1-[(2-Chlorophenyl)methyl]-5-[3-(2-methylpropanamido)phenyl]-1H-pyrazol-3-yl]methoxy)-2-methylpropanoic Acid], the IC50 at MCT4 was 5800 nM; against MCT1 it was above 100000 nM.

At MCT4, `CC(C)(OCc1cc(-c2cccc(OCC3CCC3)c2)n(Cc2ccccc2Cl)n1)C(=O)O` [Example 42, 2-[[1-[(2-Chlorophenyl)methyl]-5-[3-(cyclobutylmethoxy)phenyl]pyrazol-3-yl]methoxy]-2-methyl-propanoic acid] gave an IC50 of 2.6 nM.

`CC(C)(OCc1cc(-c2cccc(OCC3CCOCC3)c2)n(Cc2ccccc2Cl)n1)C(=O)O` [Example 45, 2-[[1-[(2-Chlorophenyl)methyl]-5-[3-(tetrahydropyran-4-ylmethoxy)phenyl]pyrazol-3-yl]methoxy]-2-methyl-propanoic acid]: the IC50 was found to be 19 nM on MCT4 and 12000 nM against MCT1.

Turning to `COc1cccc(-c2cc(COC(C)(C)C(=O)NS(C)(=O)=O)nn2Cc2ccccc2Cl)c1` [Example 81, 2-[[1-[(2-chlorophenyl)methyl]-5-(3-methoxyphenyl)pyrazol-3-yl]methoxy]-2-methyl-N-methylsulfonyl-propanamide], the half-inhibitory concentration (IC50) worked out at 6300 nM at MCT4 and 6600 nM against MCT1.

`COc1ccc(Cn2nc(COC(C)(C)C(=O)O)cc2-c2cccc(OCC(C)C)c2)cc1` [Example 63, 2-([1-[(4-methoxyphenyl)methyl]-5-[3-(2-methylpropoxy)phenyl]-1H-pyrazol-3-yl]methoxy)-2-methylpropanoic acid]: the IC50 against MCT4 is 37 nM; against MCT1 it was 17000 nM.

As for `COc1cccc(-c2cc(COC(C)(C)C(=O)O)nn2Cc2ccccc2)c1` [Example 53, 2-[[1-benzyl-5-(3-methoxyphenyl)-1H-pyrazol-3-yl]methoxy]-2-methylpropanoic acid], the IC50 was 160 nM on MCT4 and above 100000 nM against MCT1.

`CC(C)(OCc1cc(Cc2ccccc2)n(Cc2ccccc2Cl)n1)C(=O)O` [Example 77, 2-([5-Benzyl-1-[(2-chlorophenyl)methyl]-1H-pyrazol-3-yl]methoxy)-2-methylpropanoic Acid] returned an IC50 on MCT1 of 9000 nM.

For the molecule `COc1cccc(-c2cc(COC(C)(C)C(=O)O)nn2-c2ccccn2)c1` [Example 56, 2-[[5-(3-methoxyphenyl)-1-(pyridin-2-yl)-1H-pyrazol-3-yl]methoxy]-2-methylpropanoic acid], the IC50 on MCT1 is above 133000 nM.

Take `CC(C)(OCc1cc(-c2cccc(OCC3CCCC3)c2)n(Cc2ccccc2Cl)n1)C(=O)O` [Example 44, 2-[[1-[(2-Chlorophenyl)methyl]-5-[3-(cyclopentylmethoxy)phenyl]pyrazol-3-yl]methoxy]-2-methyl-propanoic acid]: the IC50 against MCT4 amounted to 1.1 nM.

`COc1cccc(-c2cc(COC(C)(C)C(=O)O)nn2-c2ccc(Cl)cc2)c1` [Example 59, 2-[[1-(4-chlorophenyl)-5-(3-methoxyphenyl)-1H-pyrazol-3-yl]methoxy]-2-methylpropanoic acid] registered an IC50 against MCT1 of 81000 nM.
